In this assay the test system is human microvascular pericytes (PC). Briefly: Long-term (28 day) differentiation of PC on glass coverslips: matrix deposition, fibrotic lesions, α-SMA and vimentin. It is filed as cell-based. As to conditions: for increase in the formation of lesions compared with nonactivated control: glass. Here is the method:
Human microvascular PC were isolated from a readily available and nearly inexhaustible source, human placental tissue, by microvascular segment explant outgrowth (Sava et al., Microcirculation, 2015, 22:54-67; Ayres-Sander et al., PLoS One, 2013, 8:e60025; Lauridsen et al., FASEB, 2014, 28:1166-1180; Maier et al., Microcirculation, 2010, 17:367-380). Human placental tissue was segmented, digested with collagenase, and the resulting cells were cultured in M199 (Gibco, Grand Island, NY, USA) medium supplemented with 20% FBS (Hyclone Laboratories, Logan, Utah, USA), and 1% penicillin-streptomycin (Gibco). Isolated pericytes were screened by flow cytometry against NG2 (H-300, Santa Cruz Biotechnology), CD90 (K-15, Santa Cruz), CD146 (P1H12, Biolegend, San Diego, Calif., USA), PDGFR-β (18A2, Santa Cruz), α-SMA (1A4, Santa Cruz), SMMHC (N-16, Santa Cruz), CD31 (C20, Santa Cruz), CD34 (581, Sigma) and CD45 (MEM-28, Sigma). As negative control, PC were incubated with isotype matched IgG. Samples were run on a Stratedigm S1000EXi Flow Cytometer (Stratedigm, San Jose, Calif. USA) and analyzed with FlowJo software (Tree Star, Ashland, Oreg., USA).
For short term (7 day) differentiation studies, PC (passage 3-7) were seeded on healthy or IPF lung tissue slices, polyacrylamide hydrogels, or 25 mm glass coverslips (VWR) at 100×10^3 cells per sample and activated with control media (non-activated), or 1 ng/mL TGF-β1 (PeproTech, Rocky Hill, N.J., USA) for 7 days (18, 19). For bleomycin activation, the cells were activated with 1 μg/mL bleomycin sulfate (Cayman Chemical, Ann Arbor, Mich.) for 1 day and the media was replaced with non-activated media for the remaining 6 days (Sava et al., Microcirculation, 2015, 22:54-67; Sterling et al., J Bio Chem, 1983, 258:14438-14444). TGF-β1 and bleomycin concentrations were based on reports consistent with activation of fibroblasts (Sava et al., Microcirculation, 2015, 22:54-67; Maroni and Davis, Bio Reprod, 2012, 87:127). Treatment with CCG-1423 (Sigma) was performed at day 0 for the full 7 days, and labeled as early treatment, or at day 7 and performed for 7 days, and labeled as late treatment. For long-term (28 day) differentiation studies, PC were cultured on 25 mm glass coverslips (VWR) or normal lung sections and the cell media was supplemented with 100 μM ascorbic acid (Spectrum Chemicals, New Brunswick, N.J., USA) to induce matrix deposition. Activation was performed with control media (non-activated), or 1 ng/mL TGF-β1. The media was replaced 3 times a week for 4 consecutive weeks (28 days) in order to mimic the chronic conditions present during fibrosis (Moeller et al., Int J Biochem Cell Biol, 2008, 40:362-382; Sava et al., Microcirculation, 2015, 22:54-67). Treatment with nintedanib (Santa Cruz) was performed at day 21 for the remaining 7 days, and labeled as early treatment, or at day 28 and performed for 2 days, and labeled as late treatment. Concentrations of CCG-1423 (1.0 nM), and nintedanib (1.0 nM) are based on therapeutic dose in studies performed on myofibroblasts (Evelyn et al., Mol Cancer Ther, 2007, 6:2249-2260, Hostettler et al., Resp Res, 2014, 15:157; Conte et al., Eur J Pharm Sci, 2014, 58:13-19; Shi et al., PLoS One, 2011, 6:e28134).
Pericyte pro-fibrotic activation/transition/phenotype was evaluated by positive staining for α-smooth muscle actin (SMA) using anti-α-SMA (1A4, Santa Cruz) and anti-vimentin (V630, Sigma). For matrix composition analysis, the coverslips were stained with anti-collagen I (ab233446, Abcam, Cambridge, Mass., USA), anti-laminin (Clone ab11575, Abcam), anti-collagen IV (Clone C1926, Sigma), or anti-fibronectin (Clone F3648, Sigma) antibodies.

Setting [1] is: nintedanib 7 days, TGF-β1-activated PC on glass, flow cytometry.

As for `COC(=O)c1ccc2c(c1)NC(=O)/C2=C(\Nc1ccc(N(C)C(=O)CN2CCN(C)CC2)cc1)c1ccccc1` [nintedanib], under setting [1], the expression of vimentin result is “without affecting” and the “expression of α-SMA” value is reported as “without affecting”. Moreover, the fibrotic node formation entry (nintedanib 7 days, TGF-β1-activated PC on glass, versus TGF-β1) is “reduced”. In addition, for the setting “nintedanib 7 days, TGF-β1-activated PC on glass, versus TGF-β1, immunoblotting, P=0.002”, the fibronectin result was “reduced”. Further, under “nintedanib 7 days, TGF-β1-activated PC on glass, versus TGF-β1, immunoblotting, P=0.01”, the “collagen I” value is on record as “reduced”.

As to “TGF-β1: transforming growth factor (TGF)-β1, fibrotic activator, used at 1 ng/mL”, the “increase in the formation of lesions compared with nonactivated control” value (day 14 of TGF-β1 exposure, P<0.001) is recorded as 2.2 fold and the “increase in the formation of lesions compared with nonactivated control” value (day 28 of TGF-β1 exposure, P<0.01) was 1.8 fold. The “vimentin expression compared with nonactivated control” value (long-term TGF-β1 activation on glass, P<0.0001) was “significant increase”. Besides, the “α-SMA expression compared with nonactivated control” value (long-term TGF-β1 activation on glass, P=0.011) was “significant increase”.

The values above are taken from US20180298344A1, “Realistic Humanized Model of Disease Matrix Environment for Evaluation of Therapeutic Reversal or Cell Fate” (Yale University, priority 2017, published 2018).
